# In patent publication US10221163B2 (priority 2015, dated 2019):
# Like-named read-outs stand apart in the source and are kept apart here.
# Assays:
# [1] = system: Pseudomonas aeruginosa efflux− (MB9799), IMP-1; type: cell-based; conditions: C, D serine β-lactamase inhibitor closely related to relebactam; for P. aeruginosa expressing IMP-1, efflux − (MB9799) MITC95: concentration restoring susceptibility to imipenem at 2 μg/mL in the presence of a class A; for Concentration of metallo-β-lactamase inhibitor which restores susceptibility of efflux − (MB9799) strain to imipenem: imipenem at 2 μg/mL, in the presence of a class A
# Description: (§1) The strain background was Pseudomonas aeruginosa PAO1.
# (§2) The strain set was then used as a pair to determine the effect of metallo-β-lactamase inhibitors of Formula I on the MIC of imipenem and/or ceftazidime. A fixed concentration of antibiotic was included in standard microbroth MIC tests, usually at the CLSI (Clinical and Laboratory Standards Institute) breakpoint concentration. A fixed amount of a class A/C beta-lactamase inhibitor was also included to inhibit the resident Pseudomonas AmpC enzyme. A serial titration of the metallo-β-lactamase inhibitor was included and the concentration of metallo-β-lactamase inhibitor which restores susceptibility of the strain to the included antibiotic was recorded. That concentration of metallo-β-lactamase inhibitor was then compared between the two strains to determine the fold difference between the efflux+ (MB9798) and efflux− (MB9799) strains. This was taken as an indication of the extent to which the MBLi is subject to efflux.
# NDM-1 = NDM-1 (Klebsiella pneumoniae, UniProt C7C422); assay: biochemical; type: biochemical; conditions: fluorescence assay, CCF2-FA substrate, 1 pM enzyme, 2 hours at 25° C.; read-out: NDM-1 IC50
# Method: (§3) Enzyme Activity: Determination of IC50
# (§4) The Class B enzyme activities were measured in the presence of the test inhibitor in a fluorescence assay against a commercially available substrate consisting of a cephalosporin core linking 7-hydroxycoumarin to fluorescein (CCF2-FA). […] In a 384-well microplate, the test inhibitor was incubated with the metallo-β-lactamase enzyme and the substrate for 2 hours at 25° C. […] The IC50 value was determined from semi-logarithmic plots of enzyme inhibition versus inhibitor concentration, with a curve generated using a 4-parameter fit.
# VIM-1 = VIM-1 (Pseudomonas aeruginosa (strain ATCC 15692 / DSM 22644 / CIP 104116 / JCM 14847 / LMG 12228 / 1C / PRS 101 / PAO1), UniProt A0A0F7KYQ8); assay: biochemical; conditions: CCF2-FA substrate, 30 pM enzyme, 2 hours at 25° C.
# Method: as §3, §4
# [2] = system: Pseudomonas aeruginosa efflux+ (MB9798), IMP-1; type: cell-based; set-up: Concentration of metallo-β-lactamase inhibitor which restores susceptibility of efflux + (MB9798) strain to imipenem: unit not given here; conditions: C, D serine β-lactamase inhibitor closely related to relebactam; for P. aeruginosa expressing IMP-1, efflux + (MB9798) MITC95: concentration restoring susceptibility to imipenem at 2 μg/mL in the presence of a class A; for Concentration of metallo-β-lactamase inhibitor which restores susceptibility of efflux + (MB9798) strain to imipenem: imipenem at 2 μg/mL, in the presence of a class A
# Description: as §1, §2
# [3] = system: Klebsiella pneumoniae expressing VIM-1 (IHMA599644); type: cell-based; conditions: for Klebsiella pneumoniae expressing VIM-1 (IHMA599644) MITC95: with imipenem 1 μg/ml, 95% inhibition of bacterial growth; for Klebsiella pneumoniae MITC95: VIM-1 strain IHMA599644, with imipenem 1 μg/ml, 95% inhibition of growth
# Method: (§5) Antibiotic Potentiation Activity: Determination of Synergistic Concentration
# (§6) The bacterial strains tested included the clinical strains Escherichia coli expressing NDM-1 (CLB30005, CLB30016), Serratia marcescens expressing IMP-1 (CL5741), and Klebsiella pneumoniae expressing VIM-1 (IHMA599644). Inhibitor activity was measured in the presence and absence of imipenem in a 384-well microplate.
# (§7) The clinical strains CLB30016, CL5741 and IHMA599644 were grown on trypticase soy agar containing 5% sheep's blood. The bacteria on agar plates were incubated at 35° C. with humidity overnight. The following day, individual colonies from each clinical strain were picked and resuspended in 5 ml saline to attain an OD600 of […], for CLB30016, CL5741 and IHMA599644, respectively. These were further diluted 1:100 into 1.1×CAMHB and used to inoculate the test wells as described below.
# (§8) Imipenem in 10 mM 3-(N-morpholino)propanesulfonic acid (MOPS, pH 7) was stored in single use aliquots at −80° C. […] On the day of the assay, 4 μl of antibiotic was added to 45 ul of bacteria followed by 1 μl of test compound and mixed by pipetting and with an orbital shaker. The concentration of antibiotic used in the assay was 1 μg/ml. Microplates were covered and incubated at 35° C. for 22 hours to 24 hours. At the end of the incubation, absorbance was determined using a spectrophotometer.
# [4] = system: Serratia marcescens expressing IMP-1 (CL5741); type: cell-based; conditions: for Serratia marcescens expressing IMP-1 (CL5741) MITC95: with imipenem 1 μg/ml, 95% inhibition of bacterial growth; for Serratia marcescens MITC95: IMP-1 strain CL5741, with imipenem 1 μg/ml, 95% inhibition of growth
# Method: as §5, §6, §7, §8
# [5] = system: Escherichia coli expressing NDM-1 (CLB30005, CLB30016); type: cell-based; conditions: with imipenem 1 μg/ml; for Escherichia coli expressing NDM-1 (CLB30016) MITC95: 95% inhibition of bacterial growth; for Escherichia coli MITC95: NDM-1 strain, 95% inhibition of growth
# Method: as §5, §6, §7, §8
# IMP-1 = IMP-1 (Serratia marcescens, UniProt P52699); assay: biochemical; type: biochemical; conditions: fluorescence assay, CCF2-FA substrate, 2 pM enzyme, 2 hours at 25° C.; read-out: IMP-1 IC50
# Method: as §3, §4
# [6] = fluorescence assay, read-out: VIM-1 IC50
# Sequence of IMP-1 (P52699 whole entry, looked up, species assumed): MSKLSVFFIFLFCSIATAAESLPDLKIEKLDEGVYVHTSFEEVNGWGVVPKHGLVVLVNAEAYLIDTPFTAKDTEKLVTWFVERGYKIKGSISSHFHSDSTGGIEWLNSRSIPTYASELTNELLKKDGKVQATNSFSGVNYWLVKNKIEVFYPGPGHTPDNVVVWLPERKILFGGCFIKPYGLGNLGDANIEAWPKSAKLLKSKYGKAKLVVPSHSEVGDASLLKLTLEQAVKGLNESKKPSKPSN
# Sequence of NDM-1 (C7C422 whole entry, looked up, species assumed): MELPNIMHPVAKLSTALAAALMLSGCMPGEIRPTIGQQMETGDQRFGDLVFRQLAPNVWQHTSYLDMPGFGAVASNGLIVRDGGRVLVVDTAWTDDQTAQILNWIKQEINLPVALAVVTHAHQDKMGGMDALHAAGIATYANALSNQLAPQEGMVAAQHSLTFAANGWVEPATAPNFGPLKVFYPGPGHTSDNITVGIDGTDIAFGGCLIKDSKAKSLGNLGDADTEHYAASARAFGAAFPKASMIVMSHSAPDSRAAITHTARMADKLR
SMILES,"P. aeruginosa expressing IMP-1, efflux − (MB9799) MITC95 [1]",IC50 (NDM-1),"IC50 (VIM-1; VIM-1 IC50, fluorescence assay)","P. aeruginosa expressing IMP-1, efflux + (MB9798) MITC95 [2]",Klebsiella pneumoniae expressing VIM-1 (IHMA599644) MITC95 [3],Serratia marcescens expressing IMP-1 (CL5741) MITC95 [4],Escherichia coli expressing NDM-1 (CLB30016) MITC95 [5],IC50 (VIM-1; [6]),Klebsiella pneumoniae MITC95 [3],Serratia marcescens MITC95 [4],Escherichia coli MITC95 [5],Concentration of metallo-β-lactamase inhibitor which restores susceptibility of efflux − (MB9799) strain to imipenem [1],IC50 (IMP-1),Concentration of metallo-β-lactamase inhibitor which restores susceptibility of efflux + (MB9798) strain to imipenem [2]
"Nc1nc2c(-c3ccc(S(=O)(=O)N[C@H]4C[C@H](N)C4)c(S(N)(=O)=O)c3-c3nnn[nH]3)cccc2s1.O=C(O)C(F)(F)F [Example 98, (1r,3r)-3-(4-(2-aminobenzo[d]thiazol-4-yl)-2-sulfamoyl-3-(1H-tetrazol-5-yl)phenylsulfonamido)cyclobutanaminium 2,2,2-trifluoroacetate]",1.042 µM,36.5 pM,169 pM,0.7813 µM,2.604 µM,1.563 µM,1.823 µM,,,,,,,
"Nc1nc2c(-c3ccc(S(=O)(=O)N4CC5C(N)C5C4)c(S(N)(=O)=O)c3-c3nnn[nH]3)cccc2s1.O=C(O)C(F)(F)F [Example 113, (1R,5S,6s)-3-((4-(2-aminobenzo[d]thiazol-4-yl)-2-sulfamoyl-3-(1H-tetrazol-5-yl)phenyl)sulfonyl)-3-azabicyclo[3.1.0]hexan-6-aminium 2,2,2-trifluoroacetate]",1.563 µM,646 pM,,1.563 µM,3.125 µM,3.125 µM,1.563 µM,773 pM,,,,,,
"CC(C)(CN)NS(=O)(=O)c1ccc(-c2cccc3sc(N)nc23)c(-c2nnn[nH]2)c1S(N)(=O)=O.O=CO [Example 117, 2-(4-(2-aminobenzo[d]thiazol-4-yl)-2-sulfamoyl-3-(1H-tetrazol-5-yl)phenylsulfonamido)-2-methylpropan-1-aminium formate]",1.563 µM,12.6 pM,,1.563 µM,3.125 µM,3.125 µM,6.25 µM,183 pM,,,,,,
"Nc1nc2c(-c3ccc(S(=O)(=O)NCC(N)C(F)F)c(S(N)(=O)=O)c3-c3nnn[nH]3)cccc2s1.O=CO (stereo not shown) [Example 118, 3-(4-(2-aminobenzo[d]thiazol-4-yl)-2-sulfamoyl-3-(1H-tetrazol-5-yl)phenylsulfonamido)-1,1-difluoropropan-2-aminium formate]",3.125 µM,26 pM,289 pM,12.5 µM,12.5 µM,6.25 µM,25 µM,,,,,,,
"Nc1nc2c(-c3ccc(S(=O)(=O)NC[C@@H]4CCCN4)c(S(N)(=O)=O)c3-c3nnn[nH]3)cccc2s1.O=CO [Example 125, (S)-2-((4-(2-aminobenzo[d]thiazol-4-yl)-2-sulfamoyl-3-(1H-tetrazol-5-yl)phenylsulfonamido)methyl)pyrrolidin-1-ium formate]",1.563 µM,46.5 pM,,0.7813 µM,3.125 µM,1.563 µM,1.563 µM,196 pM,,,,,,
"Nc1nc2c(-c3ccc(S(=O)(=O)NC[C@H]4CCCN4)c(S(N)(=O)=O)c3-c3nnn[nH]3)cccc2s1.O=CO [Example 126, (R)-2-((4-(2-aminobenzo[d]thiazol-4-yl)-2-sulfamoyl-3-(1H-tetrazol-5-yl)phenylsulfonamido)methyl)pyrrolidin-1-ium formate]",1.563 µM,56.9 pM,,0.7813 µM,3.125 µM,1.563 µM,1.563 µM,180 pM,,,,,,
"NCCNS(=O)(=O)c1ccc(-c2cccc3ncccc23)c(-c2nn[nH]n2)c1S(N)(=O)=O [Example 360, N1-(2-aminoethyl)-4-(quinolin-5-yl)-3-(2H-tetrazol-5-yl)benzene-1,2-disulfonamide]",1.563 µM,,135 pM,1.563 µM,,,,,3.125 µM,1.563 µM,1.563 µM,,,
CCOC(=O)c1sc(N)nc1-c1cccc(-c2ccc(S(=O)(=O)NC(CN)CN)c(S(N)(=O)=O)c2-c2nnn[nH]2)c1 [Example 431],,73.9 pM,,,,,,,6.25 µM,3.125 µM,3.125 µM,1.563,133 pM,12.5
"NCCNS(=O)(=O)c1ccc(-c2cccc3[nH]c(C4CNC4)nc23)c(-c2nn[nH]n2)c1S(N)(=O)=O [Example 443, N1-(2-aminoethyl)-4-(2-(azetidin-3-yl)-1H-benzo[d]imidazol-4-yl)-3-(2H-tetrazol-5-yl)benzene-1,2-disulfonamide]",,81.4 pM,,,,,,,1.172 µM,1.563 µM,0.7813 µM,0.7813,790 pM,0.7813
"Nc1ccc(-c2ccc(S(=O)(=O)N[C@@H]3CCCNC3)c(S(N)(=O)=O)c2-c2nn[nH]n2)cn1 [Example 490, (R)-4-(6-aminopyridin-3-yl)-N1-(piperidin-3-yl)-3-(2H-tetrazol-5-yl)benzene-1,2-disulfonamide]",,43.9 pM,,,,,,,3.125 µM,1.563 µM,0.7813 µM,1.563,176 pM,1.563
"Nc1ccc(-c2ccc(S(=O)(=O)N[C@H]3CCCNC3)c(S(N)(=O)=O)c2-c2nn[nH]n2)cn1 [Example 494, (S)-4-(6-aminopyridin-3-yl)-N1-(piperidin-3-yl)-3-(2H-tetrazol-5-yl)benzene-1,2-disulfonamide]",,276 pM,,,,,,,3.125 µM,1.563 µM,0.7813 µM,1.563,808 pM,3.125
